This note sets out measurements from patent US7795237B2, “Pharmaceutical composition and process” (priority 2005, dated 2010).

Data set [1] in a line: Behaviour on exposure to water (gelling). The format is physicochemical. The settings on record: crystalline form exposed to water.
The next data set has as its system hepatitis C virus (HCV). The data set can be described thus: Viral load of patients infected with hepatitis C virus. The format is in vivo.

Take `CC(C)C(=O)OC[C@@]1(N=[N+]=[N-])O[C@@H](n2ccc(N)nc2=O)[C@H](OC(=O)C(C)C)[C@@H]1OC(=O)C(C)C.Cl` [I, isobutyric acid (2R,3S,4R,5R)-5-(4-amino-2-oxo-2H-pyrimidin-1-yl)-2-azido-3,4-bis-iso-butyryloxy-tetrahydro-furan-2-ylmethyl ester; hydrochloride salt]: the “gel formation when exposed to water” value in data set [1] was “readily forms a gel when exposed to water”. Also, in the data set with hepatitis C virus (HCV), the viral load result was “decrease the viral load”.
